Read-outs that look alike come from different tables or passages of the source.
Experiments:
IKKα [1] = molecular target: T1, IKKα (Homo sapiens, UniProt O15111); conditions: previous work [6]; read-out: IKKα inhibitory activity (Ki) of previous hit; cited from earlier work
T1 sequence (O15111 1-745): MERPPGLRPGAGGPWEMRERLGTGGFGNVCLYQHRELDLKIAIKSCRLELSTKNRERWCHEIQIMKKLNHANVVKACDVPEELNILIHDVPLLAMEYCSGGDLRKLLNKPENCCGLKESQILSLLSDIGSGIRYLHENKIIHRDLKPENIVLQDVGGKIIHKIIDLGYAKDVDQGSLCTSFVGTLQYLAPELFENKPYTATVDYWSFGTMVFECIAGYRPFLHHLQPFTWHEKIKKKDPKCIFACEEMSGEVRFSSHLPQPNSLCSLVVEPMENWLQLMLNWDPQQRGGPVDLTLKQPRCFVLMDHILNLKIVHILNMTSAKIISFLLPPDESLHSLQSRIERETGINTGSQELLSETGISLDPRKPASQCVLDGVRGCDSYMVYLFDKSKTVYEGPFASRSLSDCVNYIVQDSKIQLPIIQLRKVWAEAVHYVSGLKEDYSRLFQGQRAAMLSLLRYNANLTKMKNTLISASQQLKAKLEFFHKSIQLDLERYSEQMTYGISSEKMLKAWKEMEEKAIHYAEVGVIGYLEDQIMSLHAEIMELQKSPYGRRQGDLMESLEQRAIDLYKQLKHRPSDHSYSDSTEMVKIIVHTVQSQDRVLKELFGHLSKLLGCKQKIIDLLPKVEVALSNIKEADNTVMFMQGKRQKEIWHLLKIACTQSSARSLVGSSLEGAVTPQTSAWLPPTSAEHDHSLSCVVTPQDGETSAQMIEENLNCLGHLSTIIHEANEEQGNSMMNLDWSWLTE

IKKα over IKKβ [2] = conditions: previous work [6]; cited from earlier work
U2OS cells = conditions: cited from earlier work
IKKα [3] = molecular target: T1, IKKα; assay: in-house DELFIA kinase assay, IKKα; assay type: biochemical
Description: (§1) To examine the pyrrolo[2,3 -b]pyridines as an alternative scaffold, we adopted the AIPP core because it had similar dimensions to 1 SU909, with HBD/HBA motifs positioned at the scaffold extremities to interact with both the hinge region and the G-loop wall of IKKα, a rationale we had previously proposed as the basis for imparting selectivity. A preliminary set of AIPP derivatives was designed to explore its utility as an IKK-targeting scaffold, whilst incorporating additional functionality through which to introduce selectivity for the IKKα isoform (2-4 SU1087, SU1266 and SU1253; FIG. 3). This was achieved by initially adopting two different approaches: either appending a hydrophobic moiety to the pyrrolo[2,3 -b]pyridine motif as a fused form to afford the tricyclic derivatives 2 and 3 SU1266 and SU1087, or as a phenyl substituent to introduce flexibility with the central pyrrolo[2,3 -b]pyridine moiety in 4 SU1253 . […] The pyrrolo[2,3 -b]pyridine was bound to the hinge region in the classical HBA/HBD motif with the GK+3 NH and C═O backbone, whilst the aminoindazole projected towards the top of the pocket to interact with the G-loop (FIG. 4A). […] In both isoforms, the 2 -phenyl moiety was oriented out from the hinge towards the exposed solvent area.

IKKβ = molecular target: T2, IKKβ (Homo sapiens, UniProt O14920); assay: in-house DELFIA kinase assay, IKKβ; assay type: biochemical
T2 sequence (O14920 1-756): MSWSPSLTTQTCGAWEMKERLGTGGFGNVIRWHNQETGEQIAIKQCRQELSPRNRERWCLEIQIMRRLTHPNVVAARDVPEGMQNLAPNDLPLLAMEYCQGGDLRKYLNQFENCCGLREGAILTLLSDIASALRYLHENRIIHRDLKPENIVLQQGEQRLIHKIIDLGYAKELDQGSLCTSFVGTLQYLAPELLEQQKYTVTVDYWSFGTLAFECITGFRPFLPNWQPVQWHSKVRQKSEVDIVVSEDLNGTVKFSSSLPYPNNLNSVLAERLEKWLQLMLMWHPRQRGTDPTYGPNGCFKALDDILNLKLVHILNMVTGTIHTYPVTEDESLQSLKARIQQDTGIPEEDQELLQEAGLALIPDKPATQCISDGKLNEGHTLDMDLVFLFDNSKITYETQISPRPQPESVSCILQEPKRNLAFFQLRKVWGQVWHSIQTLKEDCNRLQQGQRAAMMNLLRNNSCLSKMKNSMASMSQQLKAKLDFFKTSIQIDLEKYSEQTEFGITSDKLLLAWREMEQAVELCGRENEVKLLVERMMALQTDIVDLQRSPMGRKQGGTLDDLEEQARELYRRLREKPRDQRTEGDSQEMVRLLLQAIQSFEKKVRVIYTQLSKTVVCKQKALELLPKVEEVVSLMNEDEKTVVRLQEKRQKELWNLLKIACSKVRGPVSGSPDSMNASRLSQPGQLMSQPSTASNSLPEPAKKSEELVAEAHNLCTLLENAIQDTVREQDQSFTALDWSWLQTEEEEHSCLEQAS
Description: To examine the pyrrolo[2,3 -b]pyridines as an alternative scaffold, we adopted the AIPP core because it had similar dimensions to 1 SU909, with HBD/HBA motifs positioned at the scaffold extremities to interact with both the hinge region and the G-loop wall of IKKα, a rationale we had previously proposed as the basis for imparting selectivity. A preliminary set of AIPP derivatives was designed to explore its utility as an IKK-targeting scaffold, whilst incorporating additional functionality through which to introduce selectivity for the IKKα isoform (2-4 SU1087, SU1266 and SU1253; FIG. 3). This was achieved by initially adopting two different approaches: either appending a hydrophobic moiety to the pyrrolo[2,3 -b]pyridine motif as a fused form to afford the tricyclic derivatives 2 and 3 SU1266 and SU1087, or as a phenyl substituent to introduce flexibility with the central pyrrolo[2,3 -b]pyridine moiety in 4 SU1253 .

panel of kinases = assay: kinome profiling at 1 μM; assay type: biochemical
Description: (§2) We profiled three compounds from the series across the kinome (FIG. 11). […] To identify the structural drivers for CDK inhibition, we obtained X-ray crystal structures of 5 y and 6 g SU1336 and SU1349 with CDK-2 (FIG. 12A) to potentially identify possible routes towards introducing selectivity for IKKα over the CDK enzymes as well as IKKβ. […] All three derivatives form complexes with CDK2 with the pyrrolo[2,3 -b]pyridine H-bonding to GK+3 (Leu 83 ) and the aminoindazole projected towards the G-loop (FIG. 12A), forming H-bonds with Glu 51 and Lys 33 at the back of the pocket. The adoption of the 4 SU1253 -type orientation, rather than the flipped pose observed in IKKα, is probably facilitated by Tr-stacking between the aminoindazole and the GK residue, which in the CDKs is Phe, rather than Met. […] For 6 g SU1349, the hydrophobic pendant benzyloxy group points out into solvent, but can form face-to-edge Tr-Tr interactions with Phe 82 and His 84 from the hinge. Exchanging the hydrophobic pendant benzyloxy group for the morpholinoethyl-containing substituent in 5 y SU1336 removes any direct interaction with these hinge residues, preferring to sit in a more solvent-exposed position, as befits a basic side chain that will be protonated at physiological pH (FIG. 12B).
(§3) Black, 4 SU1253; grey, 5 r SU1261; diagonal stripes, 6 g SU1349. […] All tested compounds (4 SU1253, 5 r SU1261 and 6 g SU1349 ) inhibited CDK5 and CDK9 with >80 %.

CDK5 = CDK5 (Homo sapiens, UniProt Q00535); assay: kinome profiling at 1 μM, CDK5; assay type: biochemical; conditions: read-out: % inhibition of CDK5
Description: as §2, §3

CDK9 = CDK9 (Homo sapiens, UniProt P50750); assay: kinome profiling at 1 μM, CDK9; assay type: biochemical; conditions: read-out: % inhibition of CDK9
Description: as §2, §3

IKKα over IKKβ [4] = assay: selectivity for IKKα over IKKβ from the kinase assay; assay type: biochemical
Description: as §1
To shift the selectivity profile towards IKKα, we selected 4 SU1253 for structural optimization based on the notion that sigma-bond rotation between the phenyl ring and the pyrrolo[2,3 -b]pyridine would inbuild the flexibility required to engage with the three dimensional array of residues nearby to exploit differences between the two isoforms. Furthermore, this would enable the inclusion of moieties that could also project into solvent and address solubility considerations. Small groups (NH2, OH, OMe, OEt and F) were initially introduced into the phenyl ring to evaluate their impact on the selectivity profile against both IKKs (5 a-g SU1354 -SU1373, Table 2 ). Our goal was to achieve a 1:50 selectivity ratio of IKKα to IKKβ, with a minimum IKKβ inhibitory Ki of 500 nM.

Turbidimetric solubility = assay type: physicochemical
[5] = mouse hepatocyte clearance (cryopreserved pooled mouse CD1 hepatocytes); assay type: in vitro ADME; conditions: mouse, hepatocytes; 1 μM; 0.5×10^6 cells/mL; 37° C.
Description: Pharmacokinetic studies were contracted to Sygnature Discovery Limited. Intrinsic clearance and half life were determined using cryopreserved pooled mouse CD1 hepatocytes. Test compounds were analysed at 1 μM in Williams Media E buffer (0.01 % DMSO) at a cell density of 0.5×10^6 cells mL^−1 . Cells were incubated at 37° C. for one hour with shaking and compound depletion was measured by LC-MS/MS at six timepoints (0.25, 5, 10, 20, 40, and 60 minutes).

Chain of CDK5 (Q00535 whole entry, species assumed): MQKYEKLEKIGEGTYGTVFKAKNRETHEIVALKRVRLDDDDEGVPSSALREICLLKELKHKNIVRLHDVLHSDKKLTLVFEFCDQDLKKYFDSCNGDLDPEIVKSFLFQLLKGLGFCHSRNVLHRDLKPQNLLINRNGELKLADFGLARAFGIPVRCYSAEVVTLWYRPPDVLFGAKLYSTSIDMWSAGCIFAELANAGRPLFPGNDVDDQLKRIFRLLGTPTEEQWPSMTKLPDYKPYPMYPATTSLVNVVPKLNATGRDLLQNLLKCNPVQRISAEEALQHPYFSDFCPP
Chain of CDK5 (Q15078 99-307 partner limits assumed, species assumed): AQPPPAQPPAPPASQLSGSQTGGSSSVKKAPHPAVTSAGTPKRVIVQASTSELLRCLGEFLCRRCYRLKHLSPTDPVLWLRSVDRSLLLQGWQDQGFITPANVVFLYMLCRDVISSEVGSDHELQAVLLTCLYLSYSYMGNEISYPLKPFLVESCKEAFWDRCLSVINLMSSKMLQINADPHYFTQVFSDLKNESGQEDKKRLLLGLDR
Chain of CDK9 (P50750 whole entry, species assumed): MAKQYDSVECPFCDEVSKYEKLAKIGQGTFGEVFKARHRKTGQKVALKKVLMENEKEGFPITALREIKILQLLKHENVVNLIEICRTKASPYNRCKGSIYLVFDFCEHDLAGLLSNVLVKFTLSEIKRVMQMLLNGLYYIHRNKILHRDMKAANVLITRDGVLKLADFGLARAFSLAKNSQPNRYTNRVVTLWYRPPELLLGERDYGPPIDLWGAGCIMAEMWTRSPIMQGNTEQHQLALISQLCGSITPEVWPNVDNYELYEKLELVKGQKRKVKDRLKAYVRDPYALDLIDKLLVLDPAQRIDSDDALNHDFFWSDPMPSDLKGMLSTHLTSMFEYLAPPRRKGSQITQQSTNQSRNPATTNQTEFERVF
Chain of CDK9 (O60563 whole entry partner, species assumed): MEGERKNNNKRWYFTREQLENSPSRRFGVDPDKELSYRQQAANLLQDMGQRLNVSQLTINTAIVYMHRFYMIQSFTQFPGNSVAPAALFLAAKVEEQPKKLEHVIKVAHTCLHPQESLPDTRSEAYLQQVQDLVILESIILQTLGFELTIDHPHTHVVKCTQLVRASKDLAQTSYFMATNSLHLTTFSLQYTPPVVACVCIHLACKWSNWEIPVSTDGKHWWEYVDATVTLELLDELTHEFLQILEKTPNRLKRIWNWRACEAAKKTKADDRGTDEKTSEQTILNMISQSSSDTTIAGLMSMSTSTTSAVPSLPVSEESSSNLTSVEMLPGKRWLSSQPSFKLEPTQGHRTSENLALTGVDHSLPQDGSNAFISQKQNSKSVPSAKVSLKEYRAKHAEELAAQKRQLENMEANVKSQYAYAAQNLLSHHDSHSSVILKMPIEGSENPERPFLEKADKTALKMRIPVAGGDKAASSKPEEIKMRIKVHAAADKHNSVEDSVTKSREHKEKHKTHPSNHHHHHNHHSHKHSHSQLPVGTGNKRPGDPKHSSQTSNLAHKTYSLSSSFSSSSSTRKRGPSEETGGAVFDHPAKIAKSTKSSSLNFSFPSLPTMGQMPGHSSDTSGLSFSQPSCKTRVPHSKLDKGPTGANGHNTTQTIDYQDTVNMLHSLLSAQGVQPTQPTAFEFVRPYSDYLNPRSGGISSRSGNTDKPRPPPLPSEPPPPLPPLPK

Row | Ki (IKKα [3]) [µM] | Ki (IKKβ) [µM] | inhibition at 1 µM (CDK5) [%] | inhibition at 1 µM (CDK9) [%] | IKKβ inhibition, in words (IKKβ) | selectivity for IKKα over IKKβ, in words (IKKα over IKKβ [4]) | solubility, in words (Turbidimetric solubility) | hepatocyte CLint [5] [µL/min/1e6 cells] | SMILES | Ki (IKKα [1]) [µM] | selective inhibition of IKKα, in words (IKKα over IKKβ [2]) | selectivity in U2OS cells, in words (U2OS cells) | kinome selectivity, in words (panel of kinases) | number of kinases inhibited by >80 % (panel of kinases; panel of 231 kinases) [kinases] | number of kinases inhibited by >80 % (panel of kinases; panel of 253 kinases (FIG. 11)) [kinases]
1 | – | – | – | – | – | – | – | – | N#Cc1c[nH]c2nc(N)nc(-c3ccc(S(N)(=O)=O)cc3)c12 [1 SU909] | 0.08 | selective inhibitor of IKKα | recapitulated this discrimination in U2OS cells | – | – | –
2 | 0.003 | 0.015 | > 80 | > 80 | – | – | – | – | Nc1n[nH]c2ccc(-c3ccnc4[nH]c(-c5ccccc5)cc34)cc12 [4 SU1253, 5-(2 -Phenyl-1 H-pyrrolo[2,3-b]pyridin-4-yl)-1 H-indazol-3-amine] | – | – | – | very promiscuous | 44 | 46
3 | 0.006 | 0.012 | – | – | potent inhibition against IKKβ | equipotent against both isoforms | requisite solubility | 11 | Nc1n[nH]c2ccc(-c3ccnc4[nH]c(-c5ccnc(OCc6ccncc6)c5)cc34)cc12 [6k SU1628, 5-(2-(2-(Pyridin-4-ylmethoxy)pyridin-4-yl)-1 H-pyrrolo[2,3-b]pyridin-4-yl)-1 H-indazol-3-amine] | – | – | – | – | – | –

From US20260315487A1, “IKK-ALPHA INHIBITORS” (Cancer Research Technology Limited, priority 2023, published 2026)
